Measurements reported in patent US20230085307A1, “PYRIDAZINONE COMPOUND AND HERBICIDE” (NISSAN CHEMICAL CORPORATION, priority 2019, published 2023).

Assays:
redroot pigweed [1] = assay: Test Example 4: herbicidal effect by soil treatment (Table 19, symbol N); type: in vivo, redroot pigweed (Amaranthus retroflexus)
Outline: (§1)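 In this soil treatment, the formulated compound reached the seeds only through the soil: seeds were buried about 1.5 cm deep in sterilized diluvial soil, then the diluted emulsion was sprayed over the surface. After three weeks at 25° C. to 30° C. in a greenhouse, effects were graded on criteria from an earlier test.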

lambsquarters [2] = assay: Test Example 5: herbicidal effect by foliage application, plastic box (Table 20, symbol O); type: in vivo, lambsquarters (Chenopodium album); conditions: foliage application, 320 g/ha, evaluated three weeks after application
Outline: (§2)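 Plants were sown into sterilized diluvial soil under about 1.5 cm cover and kept in a greenhouse at 25° C. to 30° C. Fourteen days on, foliage received an even spray of the diluted emulsion. Herbicidal or crop effect was judged three weeks afterwards.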

windgrass [3] = assay: Test Example 4: herbicidal effect by soil treatment (Table 19, symbol L); type: in vivo, windgrass (Apera spica-venti)
Outline: as §1

barnyard grass [4] = assay: Test Example 3: herbicidal effect by foliage application, Wagner pot (Table 18, symbol H); type: in vivo, barnyard grass (Echinochloa crus-galli)
Outline: (§3)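 Plants were sown in alluvial soil held under 0.1–0.5 cm standing water and grown 14 days in a greenhouse at 25–30 °C. An emulsifiable formulation, water-diluted to the set dose, was then sprayed onto the foliage, and effects were scored three weeks later using previously defined criteria.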

blackgrass [5] = assay: Test Example 4: herbicidal effect by soil treatment (Table 19, symbol J); type: in vivo, blackgrass (Alopecurus myosuroides)
Outline: as §1

velvetleaf [6] = assay: Test Example 5: herbicidal effect by foliage application, plastic box (Table 20, symbol M); type: in vivo, velvetleaf (Abutilon theophrasti); conditions: foliage application, 320 g/ha, evaluated three weeks after application
Outline: as §2

Italian ryegrass [7] = assay: Test Example 5: herbicidal effect by foliage application, plastic box (Table 20, symbol K); type: in vivo, Italian ryegrass (Lolium multiflorum); conditions: foliage application, 320 g/ha, evaluated three weeks after application
Outline: as §2

barnyard grass [8] = assay: Test Example 4: herbicidal effect by soil treatment (Table 19, symbol H); type: in vivo, barnyard grass (Echinochloa crus-galli)
Outline: as §1

rice flat sedge = assay: Test Example 3: herbicidal effect by foliage application, Wagner pot (Table 18, symbol E); type: in vivo, rice flat sedge (Cyperus iria)
Outline: as §3

barnyard grass [9] = assay: Test Example 5: herbicidal effect by foliage application, plastic box (Table 20, symbol H); type: in vivo, barnyard grass (Echinochloa crus-galli); conditions: foliage application, 320 g/ha, evaluated three weeks after application
Outline: as §2

green foxtail [10] = assay: Test Example 5: herbicidal effect by foliage application, plastic box (Table 20, symbol G); type: in vivo, green foxtail (Setaria viridis); conditions: foliage application, 320 g/ha, evaluated three weeks after application
Outline: as §2

blackgrass [11] = assay: Test Example 5: herbicidal effect by foliage application, plastic box (Table 20, symbol J); type: in vivo, blackgrass (Alopecurus myosuroides); conditions: foliage application, 320 g/ha, evaluated three weeks after application
Outline: as §2

Chinese sprangletop = assay: Test Example 3: herbicidal effect by foliage application, Wagner pot (Table 18, symbol D); type: in vivo, chinese sprangletop (Leptochloa chinensis)
Outline: as §3

lambsquarters [12] = assay: Test Example 4: herbicidal effect by soil treatment (Table 19, symbol O); type: in vivo, lambsquarters (Chenopodium album)
Outline: as §1

southern crabgrass [13] = assay: Test Example 4: herbicidal effect by soil treatment (Table 19, symbol F); type: in vivo, southern crabgrass (Digitaria ciliaris)
Outline: as §1

southern crabgrass [14] = assay: Test Example 5: herbicidal effect by foliage application, plastic box (Table 20, symbol F); type: in vivo, southern crabgrass (Digitaria ciliaris); conditions: foliage application, 320 g/ha, evaluated three weeks after application
Outline: as §2

persian speedwell [15] = assay: Test Example 4: herbicidal effect by soil treatment (Table 19, symbol R); type: in vivo, Persian speedwell (Veronica persica)
Outline: as §1

redroot pigweed [16] = assay: Test Example 5: herbicidal effect by foliage application, plastic box (Table 20, symbol N); type: in vivo, redroot pigweed (Amaranthus retroflexus); conditions: foliage application, 320 g/ha, evaluated three weeks after application
Outline: as §2

windgrass [17] = assay: Test Example 5: herbicidal effect by foliage application, plastic box (Table 20, symbol L); type: in vivo, windgrass (Apera spica-venti); conditions: foliage application, 320 g/ha, evaluated three weeks after application
Outline: as §2

velvetleaf [18] = assay: Test Example 4: herbicidal effect by soil treatment (Table 19, symbol M); type: in vivo, velvetleaf (Abutilon theophrasti)
Outline: as §1

chickweed [19] = assay: Test Example 4: herbicidal effect by soil treatment (Table 19, symbol P); type: in vivo, common chickweed (Stellaria media)
Outline: as §1

wild oat [20] = assay: Test Example 4: herbicidal effect by soil treatment (Table 19, symbol I); type: in vivo, wild oat (Avena fatua)
Outline: as §1

persian speedwell [21] = assay: Test Example 5: herbicidal effect by foliage application, plastic box (Table 20, symbol R); type: in vivo, Persian speedwell (Veronica persica); conditions: foliage application, 320 g/ha, evaluated three weeks after application
Outline: as §2

chickweed [22] = assay: Test Example 5: herbicidal effect by foliage application, plastic box (Table 20, symbol P); type: in vivo, common chickweed (Stellaria media); conditions: foliage application, 320 g/ha, evaluated three weeks after application
Outline: as §2

green foxtail [23] = assay: Test Example 4: herbicidal effect by soil treatment (Table 19, symbol G); type: in vivo, green foxtail (Setaria viridis)
Outline: as §1

wild oat [24] = assay: Test Example 5: herbicidal effect by foliage application, plastic box (Table 20, symbol I); type: in vivo, wild oat (Avena fatua); conditions: foliage application, 320 g/ha, evaluated three weeks after application
Outline: as §2

Italian ryegrass [25] = assay: Test Example 4: herbicidal effect by soil treatment (Table 19, symbol K); type: in vivo, Italian ryegrass (Lolium multiflorum)
Outline: as §1

[26] = amount of applied herbicide 320 g/ha

For C#CCOc1ccc(-c2sc3ccc(F)cc3c2-c2c(OCC#C)c(C)nn(C)c2=O)cc1 [2-054], the “herbicidal effect rating, N: redroot pigweed” value (redroot pigweed [1]; 320 g/ha) was 3 (Herbicidal rate of 40% or more and less than 70%), the “herbicidal effect on O: lambsquarters” value (lambsquarters [2]) was 3 (Herbicidal rate of 40% or more and less than 70%) and the “herbicidal effect rating, L: windgrass” value (windgrass [3]; 320 g/ha) was 0 (Herbicidal rate of 5% or less (almost no effect)). The “herbicidal effect on H (barnyard grass), rating 0-5” value (barnyard grass [4]; 320 g/ha) was 4 (Herbicidal rate of 70% or more and less than 90%), the “herbicidal effect rating, J: blackgrass” value (blackgrass [5]; 320 g/ha) was 0 (Herbicidal rate of 5% or less (almost no effect)) and the “herbicidal effect on M: velvetleaf” value (velvetleaf [6]) was 4 (Herbicidal rate of 70% or more and less than 90%). The “herbicidal effect on K: Italian ryegrass” value (Italian ryegrass [7]) was 0 (Herbicidal rate of 5% or less (almost no effect)), the “herbicidal effect rating, H: barnyard grass” value (barnyard grass [8]; 320 g/ha) was 0 (Herbicidal rate of 5% or less (almost no effect)) and the “herbicidal effect on E (rice flat sedge), rating 0-5” value (rice flat sedge; 320 g/ha) was 3 (Herbicidal rate of 40% or more and less than 70%). For the same compound, the “herbicidal effect on H: barnyard grass” value (barnyard grass [9]) was 3 (Herbicidal rate of 40% or more and less than 70%), the “herbicidal effect on G: green foxtail” value (green foxtail [10]) was 3 (Herbicidal rate of 40% or more and less than 70%) and the “herbicidal effect on J: blackgrass” value (blackgrass [11]) was 0 (Herbicidal rate of 5% or less (almost no effect)). For the same compound, the “herbicidal effect on D (Chinese sprangletop), rating 0-5” value (Chinese sprangletop; 320 g/ha) was 5 (Herbicidal rate of 90% or more (almost completely withered)), the “herbicidal effect rating, O: lambsquarters” value (lambsquarters [12]; 320 g/ha) was 0 (Herbicidal rate of 5% or less (almost no effect)) and the “herbicidal effect rating, F: southern crabgrass” value (southern crabgrass [13]; 320 g/ha) was 0 (Herbicidal rate of 5% or less (almost no effect)). The “herbicidal effect on F: southern crabgrass” value (southern crabgrass [14]) was 0 (Herbicidal rate of 5% or less (almost no effect)), the “herbicidal effect rating, R: persian speedwell” value (persian speedwell [15]; 320 g/ha) was 3 (Herbicidal rate of 40% or more and less than 70%) and the “herbicidal effect on N: redroot pigweed” value (redroot pigweed [16]) was 4 (Herbicidal rate of 70% or more and less than 90%). The “herbicidal effect on L: windgrass” value (windgrass [17]) was 0 (Herbicidal rate of 5% or less (almost no effect)), the “herbicidal effect rating, M: velvetleaf” value (velvetleaf [18]; 320 g/ha) was 0 (Herbicidal rate of 5% or less (almost no effect)) and the “herbicidal effect rating, P: chickweed” value (chickweed [19]; 320 g/ha) was 0 (Herbicidal rate of 5% or less (almost no effect)). The “herbicidal effect rating, I: wild oat” value (wild oat [20]; 320 g/ha) was 0 (Herbicidal rate of 5% or less (almost no effect)), the “herbicidal effect on R: persian speedwell” value (persian speedwell [21]) was 5 (Herbicidal rate of 90% or more (almost completely withered)) and the “herbicidal effect on P: chickweed” value (chickweed [22]) was 5 (Herbicidal rate of 90% or more (almost completely withered)). For the same compound, the “herbicidal effect rating, G: green foxtail” value (green foxtail [23]; 320 g/ha) was 0 (Herbicidal rate of 5% or less (almost no effect)), the “herbicidal effect on I: wild oat” value (wild oat [24]) was 0 (Herbicidal rate of 5% or less (almost no effect)) and the “herbicidal effect rating, K: Italian ryegrass” value (Italian ryegrass [25]; 320 g/ha) was 0 (Herbicidal rate of 5% or less (almost no effect)).

In the case of Cc1ccc2sc(-c3ccc(F)cc3)c(-c3c(O)c(C)nn(C)c3=O)c2c1 [2-134], the “N: redroot pigweed, herbicidal effect rating” value (redroot pigweed [1]; [26]) was 5 (Herbicidal rate of 90% or more (almost completely withered)), the “herbicidal effect on O: lambsquarters” value (lambsquarters [2]) was 4 (Herbicidal rate of 70% or more and less than 90%) and the “L: windgrass, herbicidal effect rating” value (windgrass [3]; [26]) was 0 (Herbicidal rate of 5% or less (almost no effect)). The “herbicidal effect on H: barnyard grass” value (barnyard grass [4]; [26]) was 3 (Herbicidal rate of 40% or more and less than 70%), the “J: blackgrass, herbicidal effect rating” value (blackgrass [5]; [26]) was 0 (Herbicidal rate of 5% or less (almost no effect)) and the “herbicidal effect on M: velvetleaf” value (velvetleaf [6]) was 5 (Herbicidal rate of 90% or more (almost completely withered)). For the same compound, the “herbicidal effect on K: Italian ryegrass” value (Italian ryegrass [7]) was 3 (Herbicidal rate of 40% or more and less than 70%), the “H: barnyard grass, herbicidal effect rating” value (barnyard grass [8]; [26]) was 0 (Herbicidal rate of 5% or less (almost no effect)) and the “herbicidal effect on E: rice flat sedge” value (rice flat sedge; [26]) was 5 (Herbicidal rate of 90% or more (almost completely withered)). For the same compound, the “herbicidal effect on H: barnyard grass” value (barnyard grass [9]) was 0 (Herbicidal rate of 5% or less (almost no effect)), the “herbicidal effect on G: green foxtail” value (green foxtail [10]) was 0 (Herbicidal rate of 5% or less (almost no effect)) and the “herbicidal effect on J: blackgrass” value (blackgrass [11]) was 0 (Herbicidal rate of 5% or less (almost no effect)). For the same compound, the “herbicidal effect on D: Chinese sprangletop” value (Chinese sprangletop; [26]) was 0 (Herbicidal rate of 5% or less (almost no effect)), the “O: lambsquarters, herbicidal effect rating” value (lambsquarters [12]; [26]) was 5 (Herbicidal rate of 90% or more (almost completely withered)) and the “F: southern crabgrass, herbicidal effect rating” value (southern crabgrass [13]; [26]) was 2 (Herbicidal rate of 20% or more and less than 40%). The “herbicidal effect on F: southern crabgrass” value (southern crabgrass [14]) was 0 (Herbicidal rate of 5% or less (almost no effect)), the “R: persian speedwell, herbicidal effect rating” value (persian speedwell [15]; [26]) was 4 (Herbicidal rate of 70% or more and less than 90%) and the “herbicidal effect on N: redroot pigweed” value (redroot pigweed [16]) was 5 (Herbicidal rate of 90% or more (almost completely withered)). For the same compound, the “herbicidal effect on L: windgrass” value (windgrass [17]) was 0 (Herbicidal rate of 5% or less (almost no effect)), the “M: velvetleaf, herbicidal effect rating” value (velvetleaf [18]; [26]) was 0 (Herbicidal rate of 5% or less (almost no effect)) and the “P: chickweed, herbicidal effect rating” value (chickweed [19]; [26]) was 4 (Herbicidal rate of 70% or more and less than 90%). The “I: wild oat, herbicidal effect rating” value (wild oat [20]; [26]) was 0 (Herbicidal rate of 5% or less (almost no effect)), the “herbicidal effect on R: persian speedwell” value (persian speedwell [21]) was 5 (Herbicidal rate of 90% or more (almost completely withered)) and the “herbicidal effect on P: chickweed” value (chickweed [22]) was 5 (Herbicidal rate of 90% or more (almost completely withered)). For the same compound, the “G: green foxtail, herbicidal effect rating” value (green foxtail [23]; [26]) was 0 (Herbicidal rate of 5% or less (almost no effect)), the “herbicidal effect on I: wild oat” value (wild oat [24]) was 0 (Herbicidal rate of 5% or less (almost no effect)) and the “K: Italian ryegrass, herbicidal effect rating” value (Italian ryegrass [25]; [26]) was 0 (Herbicidal rate of 5% or less (almost no effect)).
